Test: Perfume stabilization effect (photostabilizer, sunlight exposure, judgement by perfumier)
Design: key to Sunlight exposure (80 MJ) Smell evaluation / Sunlight exposure (80 MJ) evaluation: A: No change; B: No almost change; C: Yes change
Description: Next, the photostabilization effect for each perfume was studied by the following evaluation formulation.
Each test sample was prepared. Change of smell of sample exposed to sunlight (80 MJ) was observed (judgement by perfumier).

## Oc1nncc(N2CCOCC2)c1N1CCOCC1 [4,5-Dimorpholino-3-hydroxypyridazine]
Base perfume Aldehyde 0.03 wt %, photostabilizer 0.2 wt %
  Sunlight exposure (80 MJ) Smell evaluation: A
Base perfume Animal 0.03 wt %, photostabilizer 0.3 wt %
  Sunlight exposure (80 MJ) Smell evaluation: A
Base perfume Chypre 0.03 wt %, photostabilizer 0.01 wt %
  Sunlight exposure (80 MJ) Smell evaluation: A
Base perfume Citrus 0.03 wt %, photostabilizer 0.03 wt %
  Sunlight exposure (80 MJ) Smell evaluation: A
Base perfume Fougere 0.03 wt %, photostabilizer 0.1 wt %
  Sunlight exposure (80 MJ) Smell evaluation: A
Base perfume Fruity 0.03 wt %, photostabilizer 0.1 wt %
  Sunlight exposure (80 MJ) Smell evaluation: A
Base perfume Green 0.03 wt %, photostabilizer 0.05 wt %
  Sunlight exposure (80 MJ) Smell evaluation: A
Base perfume Jasmine 0.03 wt %, photostabilizer 0.01 wt %
  Sunlight exposure (80 MJ) Smell evaluation: A
Base perfume Muguet 0.03 wt %, photostabilizer 0.05 wt %
  Sunlight exposure (80 MJ) Smell evaluation: A
Base perfume Oriental 0.03 wt %, photostabilizer 0.1 wt %
  Sunlight exposure (80 MJ) Smell evaluation: A
Base perfume Rose 0.03 wt %, photostabilizer 0.05 wt %
  Sunlight exposure (80 MJ) Smell evaluation: A
Base perfume Spicy 0.03 wt %, photostabilizer 0.2 wt %
  Sunlight exposure (80 MJ) Smell evaluation: A
Base perfume Woody 0.03 wt %, photostabilizer 0.1 wt %
  Sunlight exposure (80 MJ) Smell evaluation: A
Natural perfume Jasmine oil 0.03 wt %, photostabilizer 0.05 wt %
  Sunlight exposure (80 MJ) Smell evaluation: A
Natural perfume Lavender oil 0.03 wt %, photostabilizer 0.1 wt %
  Sunlight exposure (80 MJ) Smell evaluation: A
Natural perfume Neroli oil 0.03 wt %, photostabilizer 0.1 wt %
  Sunlight exposure (80 MJ) Smell evaluation: A
Natural perfume Rose oil 0.03 wt %, photostabilizer 0.05 wt %
  Sunlight exposure (80 MJ) Smell evaluation: A
Natural perfume Ylang ylang oil 0.03 wt %, photostabilizer 0.2 wt %
  Sunlight exposure (80 MJ) Smell evaluation: A
Synthetic perfume Citral 0.03 wt %, photostabilizer 0.1 wt %
  Sunlight exposure (80 MJ) Smell evaluation: A
Synthetic perfume Limonene 0.03 wt %, photostabilizer 0.05 wt %
  Sunlight exposure (80 MJ) Smell evaluation: A
Synthetic perfume Linalool 0.03 wt %, photostabilizer 0.05 wt %
  Sunlight exposure (80 MJ) Smell evaluation: A
Synthetic perfume Linalyl acetate 0.03 wt %, photostabilizer 0.1 wt %
  Sunlight exposure (80 MJ) Smell evaluation: A
Synthetic perfume Rose oxide 0.03 wt %, photostabilizer 0.2 wt %
  Sunlight exposure (80 MJ) Smell evaluation: A
Base perfume, summary of Table 19
  change of smell: very small in comparison with other photostabilizers
Natural perfume Ambergris oil, photostabilizer amount 0.3 wt %
  Sunlight exposure (80 MJ) evaluation: A
Natural perfume Bergamot oil, photostabilizer amount 0.1 wt %
  Sunlight exposure (80 MJ) evaluation: A
Natural perfume Castoreum oil, photostabilizer amount 0.3 wt %
  Sunlight exposure (80 MJ) evaluation: A
Natural perfume Cinnamon oil, photostabilizer amount 0.01 wt %
  Sunlight exposure (80 MJ) evaluation: A
Natural perfume Civet oil, photostabilizer amount 0.2 wt %
  Sunlight exposure (80 MJ) evaluation: A
Natural perfume Clary sage oil, photostabilizer amount 0.03 wt %
  Sunlight exposure (80 MJ) evaluation: A
Natural perfume Cloves oil, photostabilizer amount 0.03 wt %
  Sunlight exposure (80 MJ) evaluation: A
Natural perfume Coriander oil, photostabilizer amount 0.01 wt %
  Sunlight exposure (80 MJ) evaluation: A
Natural perfume Geranium oil, photostabilizer amount 0.03 wt %
  Sunlight exposure (80 MJ) evaluation: A
Natural perfume Lemon oil, photostabilizer amount 0.001 wt %
  Sunlight exposure (80 MJ) evaluation: A
Natural perfume Moss oil, photostabilizer amount 0.2 wt %
  Sunlight exposure (80 MJ) evaluation: A
Natural perfume Nutmeg oil, photostabilizer amount 0.01 wt %
  Sunlight exposure (80 MJ) evaluation: A
Natural perfume Oakmoss oil, photostabilizer amount 0.2 wt %
  Sunlight exposure (80 MJ) evaluation: A
Natural perfume Opopanax oil, photostabilizer amount 0.1 wt %
  Sunlight exposure (80 MJ) evaluation: A
Natural perfume Orange oil, photostabilizer amount 0.1 wt %
  Sunlight exposure (80 MJ) evaluation: A
Natural perfume Orris oil, photostabilizer amount 0.2 wt %
  Sunlight exposure (80 MJ) evaluation: A
Natural perfume Patchouli oil, photostabilizer amount 0.01 wt %
  Sunlight exposure (80 MJ) evaluation: A
Natural perfume Pepper oil, photostabilizer amount 0.001 wt %
  Sunlight exposure (80 MJ) evaluation: A
Natural perfume Peppermint oil, photostabilizer amount 0.03 wt %
  Sunlight exposure (80 MJ) evaluation: A
Natural perfume Sandals wood oil, photostabilizer amount 0.01 wt %
  Sunlight exposure (80 MJ) evaluation: A
Natural perfume Tuberose oil, photostabilizer amount 0.03 wt %
  Sunlight exposure (80 MJ) evaluation: A
Natural perfume Vetiver oil, photostabilizer amount 0.2 wt %
  Sunlight exposure (80 MJ) evaluation: A
Natural perfume, summary of Table 17
  change of smell: very small in comparison with other photostabilizers
Synthetic perfume 2,6-Nonadienal, photostabilizer amount 0.03 wt %
  Sunlight exposure (80 MJ) Smell evaluation: A
Synthetic perfume Benzyl benzoate, photostabilizer amount 0.1 wt %
  Sunlight exposure (80 MJ) Smell evaluation: A
Synthetic perfume Cyclopentadecanone, photostabilizer amount 0.05 wt %
  Sunlight exposure (80 MJ) Smell evaluation: A
Synthetic perfume Eugenol, photostabilizer amount 0.1 wt %
  Sunlight exposure (80 MJ) Smell evaluation: A
Synthetic perfume Farnesol, photostabilizer amount 0.01 wt %
  Sunlight exposure (80 MJ) Smell evaluation: A
Synthetic perfume I-Carvone, photostabilizer amount 0.05 wt %
  Sunlight exposure (80 MJ) Smell evaluation: A
Synthetic perfume Indole, photostabilizer amount 0.2 wt %
  Sunlight exposure (80 MJ) Smell evaluation: A
Synthetic perfume Lilial, photostabilizer amount 0.3 wt %
  Sunlight exposure (80 MJ) Smell evaluation: A
Synthetic perfume Lyral, photostabilizer amount 0.3 wt %
  Sunlight exposure (80 MJ) Smell evaluation: A
Synthetic perfume Phenylacetaldehyde dimethyl acetal, photostabilizer amount 0.2 wt %
  Sunlight exposure (80 MJ) Smell evaluation: A
Synthetic perfume cis-3-Hexenol, photostabilizer amount 0.01 wt %
  Sunlight exposure (80 MJ) Smell evaluation: A
